Results published in patent US20230330021A1, “DRUG-LOADED POLYMER VESICLE HAVING ASYMMETRIC MEMBRANE STRUCTURE, PREPARATION METHOD THEREFOR, AND APPLICATION THEREOF IN PREPARATION OF DRUGS FOR TREATING ACUTE MYELOID LEUKEMIA” (SOOCHOW UNIVERSITY, priority 2020, published 2023).
Where a name gives a salt, the structure may show the parent alone.

Experiments:
[1] = test system: orthotopic MV4-11-GFP-Luc-bearing mice; experiment: Antitumor effect of A6-cPS-VCR in orthotopic AML model; type: in vivo
Description: (§1) Construction of an in situ MV4-11-GFP-Luc acute myeloid leukemia mouse model: All animal experiments and operations were approved by the Experimental Animal Center of Soochow University and the Animal Care and Use Committee of Soochow University. […] Mice were first irradiated with X-rays (2.0 Gy), then the antibody CD122 (10 mg/kg mouse) was injected intraperitoneally, and 6 hours later, MV4-11-GFP-Luc cells (1×10^5 cells/mouse) injected into mice by tail vein. After inoculation, the proliferation and proliferation of leukemia cells in mice were observed by in vivo imaging of small animals (FIG. 12).
Antitumor effect of A6-cPS-VCR in orthotopic MV4-11-GFP-Luc-bearing mice: To study the antitumor effect of A6-cPS-VCR on orthotopic MV4-11-GFP-Luc bearing mice Tumor effect, the following treatment plan was designed (FIG. 14): the first injection was injected on the 6th day after the inoculation, which was counted as the 0th day, and the second injection was given on the 2nd day. The dose of VCR was 0.50 mg/kg, and the control group was injected with 100 µL PBS. There were 10 tumor-bearing mice in each group. […] Mice lose weight before dying. […] And cPS-VCR (11 days), prolonged 1.5-2.7 times.
In order to further accurately and quantitatively analyze the proliferation of leukemia cells in mice, on the 4th day, 3 mice in each group were randomly selected for dissection, and the leukocytes in the liver, spleen and bone marrow were extracted, and the content of leukemia cells was detected by flow cytometry. And the liver, spleen and bone marrow slices were analyzed to observe the damage.
Acute myeloid leukemia cells abnormally proliferate in the bone marrow of mice, resulting in osteolytic lesions in mice. Therefore, micro-CT was used to evaluate the relevant indexes of the femur of each group of mice.

YNH-1 = experiment: Cell proliferation inhibition assay (CCK8 method); type: cell-based; settings: CD44-negative YNH-1
MV4-11 cells [2] = experiment: Cell cycle, PI flow cytometry; type: cell-based; settings: VCR 10 ng/mL
Description: The cell culture and treatment of the cell cycle experiment of A6-cPS-VCR refer to the above method, and only add 1 mL of PBS to resuspend the cells at the end. Then, 4 mL of ice 95% ethanol was added to fix the cells for 12 hours, and 400 µL of PI staining solution was added for 30 minutes in the dark on a shaker at 37° C. Finally, the cells were tested by flow cytometry.

MV4-11 cells [3] = experiment: Apoptosis, AnnexinV/PI flow cytometry; type: cell-based; settings: VCR 10 ng/mL
Description: A6-cPS-VCR-targeted polymer vesicle nanomedicine induces apoptosis and cell cycle: First, MV4-11 cells were plated in a 24-well plate at a density of 2 × 10^5 cells/well and cultured for 24 hours. 20 µL of A6-cPS-VCR, cPS-VCR or VCR (concentration of VCR was 10 ng/mL) was added, respectively, and 20 µL of PBS was added to the control group. After 4 hours of incubation, the supernatant was removed by centrifugation (3000 rpm, 10 minutes), then fresh RPMI-1640 complete medium was added, the cells were blown off and placed in the incubator for a further 44 hours. Cells were collected in a flow tube, centrifuged (800 rpm, 5 min) and washed twice with 4° C. cold PBS. Finally, 200 µL of binding buffer was added to resuspend the cells. After pipetting evenly, taken 100 µL of it into the flow tube, added 5 µL of AnnexinV-F647 and 10 µL of PI solution in sequence, and stain at room temperature for 15 minutes in the dark, then add 400 µL of PBS and mix evenly to stop the staining, and detection by a flow cytometer within 1 hour. Among them, the cells that were treated in a 50° C. water bath for 5 minutes and fixed with 4% paraformaldehyde for 5 minutes were added with 5 µL of AnnexinV-F647 solution and 10 µL of PI solution for staining for 15 minutes respectively. Cytometer for testing.

OCI-AML-3 = experiment: Cell proliferation inhibition assay (CCK8 method); type: cell-based; settings: CD44-negative OCI-AML-3
[4] = test system: orthotopic MV4-11-GFP-Luc-bearing mice; experiment: Antitumor effect of A6-cPS-DNR in orthotopic AML model; type: in vivo; settings: DNR 2 mg/kg
Description: as §1
Antitumor effect of A6-cPS-DNR in orthotopic MV4-11-GFP-Luc-bearing mice: To study the antitumor effect of A6-cPS-DNR on orthotopic MV4-11-GFP-Luc-bearing mice Tumor effect (refer to Example 11 for the design scheme). The DNR dose was 2 mg/kg, and A6-cPS-DNR was increased by 3 mg/kg in a high-dose group. The blank control group was injected with 100 µL PBS. There were 3 tumor-bearing mice in each group.

## CC[C@]1(O)C[C@H]2CN(CCc3c([nH]c4ccccc34)[C@@](C(=O)OC)(c3cc4c(cc3OC)N(C=O)[C@H]3[C@@](O)(C(=O)OC)[C@H](OC(C)=O)[C@]5(CC)C=CCN6CC[C@]43[C@@H]65)C2)C1 [VCR, vincristine sulfate]
[1]; 4th day, 3 mice per group
  leukemia levels in the liver, spleen and bone marrow, flow cytometry: reduced
[1]; VCR 0.50 mg/kg
  median survival time: 9 days
[1]; VCR 0.50 mg/kg, injections day 0 and day 2
  proliferation of MV4-11-GFP-Luc cells, bioluminescence imaging: proliferated slowly during drug administration, but proliferated rapidly after drug withdrawal
YNH-1
  proliferation inhibition: no significant difference
MV4-11 cells [2]
  effect on cell cycle: arresting cells in G2/M phase
MV4-11 cells [3]
  apoptosis: 16.7%
OCI-AML-3
  proliferation inhibition: no significant difference

## COc1cccc2c1C(=O)c1c(O)c3c(c(O)c1C2=O)C[C@@](O)(C(C)=O)C[C@@H]3O[C@H]1C[C@H](N)[C@H](O)[C@H](C)O1 [DNR, daunorubicin]
[4]
  fluorescence quantification, bioluminescence imaging: decreased slightly
